Laboratory results: patent publication US20240252493A1, “Apelin Receptor Modulators for Treating Age-Related Muscle Conditions” (BIOAGE LABS, INC., priority 2021, published 2024)
Entries after “also recorded” stand apart in the source; their conditions may differ.

Key:
rats = details: cited from earlier work
[1] = system: Pax7, MyoD, MyoG, Myf5, MyHC3, and MyHC8; test: CTX-induced muscle injury: transcript levels of regeneration genes; assay type: in vivo, mice
Method: Impairment of muscle regeneration can contribute to age-related muscle weakness. This is particularly true in aged individuals who engage in physical activity. Exercise-induced muscle hypertrophy is linked to the capacity of muscle stem cells to be activated and promote regeneration. […] Mice were i.p injected with buprenorphine (Centravet, 0.1 mg/kg) 30 minutes before injury and the day after. The day of the injury, mice were anesthetized with isoflurane inhalation and hindlimbs were shaved. Then, 10 μM of cardiotoxin (CTX, Latoxan, #L8102) was injected through two injections of 25 μl into the left tibialis muscle and two injections of 50 μl into the left gastrocnemius muscle, using a 22-gauge needle (Hamilton). Mice were euthanized 3 and 7 days after injury by cervical dislocation, muscles (PBS- and CTX-injected) were cut in two parts, one being snap frozen into liquid nitrogen for total RNA extraction and the other part being embedded into OCT, frozen in isopentane cooled with liquid nitrogen for histological analysis.

79-HMC [2] = test: Proliferation of immortalized human muscle cells, older donor; assay type: cell-based; details: for cell proliferation (measured at day 4): older subject cells
Method: (§1) Immortalized human cells from male donors (25-HMC) […] (79-HMC) are grown from the proliferation stage until they become 80% confluent, differentiate, and become myotubes. […] Early proliferation markers (Pax7, Myf5, MyoD, and MyoG were assessed via RT-PCR (FIG. 8D to 8K)

phosphorylation of Akt = test: Western blot of Akt phosphorylation in rat tibialis anterior; assay type: in vivo; details: rats
Source text: (§2) Administration of an apelin receptor agonist can induce the phosphorylation and activation of AMPK in heart tissue. Tissue samples were lysed using T-PER tissue protein extraction reagent (Thermo Fisher Scientific #78510) containing EDTA and protease/phosphatase inhibitors on the Omni Bead Ruptor 12 Homogenizer. Total protein was extracted then quantified using Pierce™ BCA Protein Assay Kit. Loaded equal amounts of total protein per lane on a 4-12% SDS-PAGE gel and transferred to PVDF membrane. Membranes were blocked and blotted with anti-phospho-AMPKα-Thr172 (Cell Signaling Technology, CST #2535), total-AMPKα (CST #2532), anti-phospho-Akt-SeR^473 (CST #4060), total-Akt (CST #4685), anti-phospho-ERK-1/2-Thr202/Tyr204 of Erk1 and Thr185/Tyr187 of Erk2 (CST #4370), total-ERK-1/2 (CST #9107) or anti-APLNR receptor (abcam, ab214369) antibodies. Band intensities were normalized to loading control anti-β-Actin (CST #3700) or anti-GAPDH (abcam, ab181602) antibodies. Immunoreactive proteins were detected using SuperSignal™ West Femto Substrate (Thermo Fisher Scientific #34095) and quantified by Image Lab™ software (Bio-Rad Laboratories, Inc.).
(§3) The difference between tissues was conserved among rodent species: In rats, as in mice, apelin receptor levels in rat tissue were 2-fold higher in heart than in soleus, FIGS. 5A-5B. […]

79-HMC [3] = test: Early proliferation marker expression (RT-PCR), older donor cells; assay type: cell-based, human
Method: as §1

[4] = system: aged (24-month-old) C57BL/6 mice; test: Grid hang test (forearm grip strength); assay type: in vivo; details: after 64 days of treatment, vs vehicle
Method: Four 20-gallon plastic buckets were used to suspend a three-by-three-foot metal grid suspended approximately three feet from the ground. The ground just below the grid was padded with soft material. The metal grid was placed on its side so that it was perpendicular to the buckets' surface. […] Once the grid was completely parallel with the horizontal plane (i.e. the floor), the timer was started. The timer was stopped when the mouse fell onto the padded floor and the time to fall was recorded and graphed.
(§4) To determine whether increased wheel activity was accompanied by an increase in muscle strength, near the end of the frailty study the mice were subjected to a grid hang test, which measures forearm grip strength. […] Average latency to fall increased in the BGE-105-treated mice (p=0.04, Mann-Whitney U test) (FIGS. 3B and 3C). Thus, the increase in running activity observed in BGE-105-treated mice were accompanied by improved forearm grip strength.

[5] = system: aged (24-month-old) C57BL/6 mice; test: Tissue wet weight and body weight at end of frailty study; assay type: in vivo; details: vs vehicle
Method: The animals were housed with access to voluntary running wheels that wirelessly transmit running data to a computer for analysis. Voluntary running wheel activity levels were measured daily, and body weights were measured every 2 weeks.
as §4

apelin receptor = test: Apelin receptor protein levels in rat TA after chronic dosing; assay type: in vivo; details: rats, 5 consecutive days oral, 50 mg/kg QD and 200 mg/kg BID
Source text: as §2, §3

25-HMC = test: Early proliferation marker expression (RT-PCR), younger donor cells; assay type: cell-based, human
Method: as §1

pAMPK = test: Western blot of pAMPK in heart after oral BGE-105; assay type: in vivo; details: mice, oral 45 mg/kg, vs vehicle
Source text: as §2
Apelin can induce the phosphorylation of Akt in the soleus muscle and improve glucose homeostasis. […]

[6] = gastrocnemius, aged mice, 3 or 7 days, apelin 0.5 μmol/kg/day, BGE-105 50 and 200 mg/kg/day
[7] = gastrocnemius, young mice, 3 or 7 days, apelin 0.5 μmol/kg/day, BGE-105 50 and 200 mg/kg/day
[8] = tibialis anterior, aged mice, 7 days, apelin 0.5 μmol/kg/day, BGE-105 50 and 200 mg/kg/day
[9] = tibialis, young mice, 3 or 7 days, apelin 0.5 μmol/kg/day, BGE-105 50 and 200 mg/kg/day

## COc1cccc(OC)c1-n1c(NS(=O)(=O)[C@@H](C)[C@H](C)c2ncc(C)cn2)nnc1-c1cncc(C)c1 [BGE-105, (2S,3R)—N-(4-(2,6-dimethoxyphenyl)-5-(5-methyl-3-pyridinyl)-4H-1,2,4-triazol-3-yl)-3-(5-methyl-2-pyrimidinyl)-2-butanesulfonamide]
rats
  cardiovascular response: induces a cardiovascular response
[1]; aged (18-month-old) mice, tibialis, 7 days after CTX, vs PBS
  expression levels of genes involved in muscle regeneration (Pax7, MyoD, MyoG, Myf5, MyHC3, MyHC8): significantly higher levels of several mRNA transcripts; also recorded: dramatically higher
[1]; aged mice, gastrocnemius
  effect on regeneration gene expression in gastrocnemius compared with tibialis: not as prominent
[1]; gastrocnemius, aged (18-month-old) mice, 3 or 7 days, apelin 0.5 μmol/kg/day, BGE-105 50 and 200 mg/kg/day
  Pax7 transcript levels: no significant change
[1]; gastrocnemius, aged mice, 3 and 7 days, apelin 0.5 μmol/kg/day, BGE-105 50 and 200 mg/kg/day
  MyoD transcript levels: significant increase
[1]; [6]
  Myf5 transcript levels: no significant change
  MyoG transcript levels: no significant change
[1]; gastrocnemius, aged mice, any time point, any treatment
  MyHC8 transcript levels: does not show a change
[1]; gastrocnemius, aged mice, only at 7 days, BGE-105 200 mg/kg/day
  MyHC3 transcript levels: significant increase
[1]; gastrocnemius, young (3-month-old) mice, 3 or 7 days, apelin 0.5 μmol/kg/day, BGE-105 50 and 200 mg/kg/day
  Pax7 transcript levels: no change
[1]; [7]
  Myf5 transcript levels: no change
  MyoD transcript levels: no change
  MyoG transcript levels: no change
[1]; gastrocnemius, young mice, 3 days, apelin 0.5 μmol/kg/day, BGE-105 50 and 200 mg/kg/day
  MyHC8 transcript levels: non-significant increase
[1]; gastrocnemius, young mice, only 3 days, BGE-105 50 mg/kg/day
  MyHC3 transcript levels: increase
[1]; tibialis anterior, aged (18-month-old) mice, 7 days post cardiotoxin, apelin 0.5 μmol/kg/day, BGE-105 50 and 200 mg/kg/day
  Pax7 transcript levels: significant increase
[1]; tibialis anterior, aged mice, 3 and 7 days post cardiotoxin, apelin 0.5 μmol/kg/day, BGE-105 50 and 200 mg/kg/day
  MyoD transcript levels: significant increase
[1]; [8]
  MyHC3 transcript levels: significant increase
  Myf5 transcript levels: significant change
  MyoG transcript levels: significant increase
[1]; tibialis, young (3-month-old) mice, 3 or 7 days, apelin 0.5 μmol/kg/day, BGE-105 50 and 200 mg/kg/day
  Pax7 transcript levels: no change
[1]; [9]
  MyHC3 transcript levels: no significant change
  MyHC8 transcript levels: no significant change
  Myf5 transcript levels: no difference
  MyoD transcript levels: no significant increase
  MyoG transcript levels: no difference
[1]; young (3-month-old) mice
  effect on regeneration gene expression in young mice: not as effective
79-HMC [2]; aged donor cells, day 0 to day 4 post seeding
  cell proliferation, short-term treatment: significant increase of cell proliferation
79-HMC [2]; 5 nM
  cell proliferation (measured at day 4): significant increase in cell proliferation
79-HMC [2]; 50 nM
  cell proliferation (measured at day 4): increase
Phosphorylation of Akt; oral 50 mg/kg BID, 5 consecutive days
  phosphorylation of Akt in TA: strongest response
Phosphorylation of Akt; oral dosing 5 consecutive days, across doses
  phosphorylation of Akt in TA: dose-dependent manner
79-HMC [3]; aged-donor cells
  expression of muscle cell differentiation markers Pax7, Myf5, MyoD, and MyoG: increased the expression
79-HMC [3]; older cells, 0.05, 0.5, 5, 50 nM, vs control
  Pax7 levels: significant increase at all treatment doses
79-HMC [3]; older cells, all treatment levels
  MyoG levels: increase at all treatment levels
79-HMC [3]; older donor cells, 5 and 50 nM
  Myf5 expression: equal to apelin treatment
79-HMC [3]; older donor cells, all treatment levels
  MyoD levels: increase at all treatment levels
[4]
  latency to fall in grid hang test (grip strength): statistically significant improvement in grip strength; also recorded: increase in the latency to fall; also recorded: increased
[5]
  body weight: the increase was not significant
  tissue wet weight, gastrocnemius: trend toward higher tissue wet weight
  tissue wet weight, heart: no difference
  tissue wet weight, quadriceps: trend toward higher tissue wet weight
  tissue wet weight, tibialis anterior (TA): significantly higher tissue wet weight
Apelin receptor
  apelin receptor levels in the TA: modest but non-significant decrease
25-HMC; young donor cells
  expression of muscle cell differentiation markers Pax7 and MyoD: increased the expression
25-HMC; younger cells, 5 nM
  MyoD expression: very significant increase
25-HMC; younger cells, 5 and 50 nM
  Myf5 expression: equal to apelin treatment
  Pax7 expression: recapitulated the levels of apelin
25-HMC; younger cells, any amount of BGE-105, relative to control
  MyoG expression (FIG. 8F): no change
pAMPK
  pAMPK levels in the heart: increased levels; also recorded: significantly higher
